# From the pKa sets of Baltruschat and Czodrowski (2020)
row,Structure (SMILES),pKa
1,O=C1N(Cc2cccc3[nH]ccc23)CCCC12CCN(c1cnc3ccccc3n1)CC2,3.75
2,CC(c1cc2ccccc2s1)N(O)C(N)=O (centres undefined),10.2
3,COc1ccc(CNC(=O)c2c(C)nc3ccccn23)cc1,5
4,c1ccc(Nc2nc(NC3CCCCC3)nc3ccccc23)cc1,8
5,N#Cc1ccc2ccn(-c3ccnc(N)n3)c2c1,4.6
6,Cc1cc(C)nc(N2CCC3(CCCN(Cc4ccccc4-c4nc(C)no4)C3=O)CC2)n1,4.8
7,CCc1ccccc1N(CC)C(=O)C1CCN(c2ncnc3c2nc2n3CCCCC2)CC1,3.9
8,Nc1nc(-c2ccccn2)nc(N)c1Cc1ccc(Cl)cc1Cl,5.6
9,O=c1[nH]c2cc(-c3ccc(F)cc3)ccc2cc1[O-],8.1
10,c1ccc(-c2nc3n(c2-c2ccccc2)CCS3)cc1,4.8
11,O=C(NO)C1c2ccccc2-c2ccccc21,8.7
12,O=C1CCCC2(CCN(c3cnc4ccccc4n3)CC2)N1Cc1c[nH]c2ccccc12,3.3
13,Cc1ccc(C)n1-c1ccc(C(=O)[O-])c(O)c1,2.3
14,COc1ccc(Nc2ccc3ccccc3n2)cc1,6.5
15,COc1ccc(-c2cnc3c(-c4cccc5ncccc45)cnn3c2)cc1,4.4
16,C1=C(c2ccc3ccccc3c2)N2CC[NH+]=C2c2ccccc21,10.2
17,Nc1ncnc2ccc(-c3ccnc(F)c3)nc12,4.5
18,C[NH+](C)CCSc1nc2ccccc2cc1-c1ccccc1,8.4
19,N#Cc1cc(C[NH+]2CCC(Nc3ncnc4sc(Cl)cc34)CC2)ccc1F,7
20,O=C1CCCC2(CCN(c3cnc4ccccc4n3)CC2)N1Cc1ccccc1,3.3
21,O=C([O-])c1ccccc1Nc1cc(C(F)(F)F)cc(C(F)(F)F)c1,3.9
22,Cc1ccc2nc(N)ccc2c1,7.6
23,CC(C)Nc1nc(Nc2ccc(C(N)=O)cc2)c2sccc2n1,6.3
24,Cc1ccc(NC(=O)c2ccccc2)cc1Nc1nccc(-c2cccnc2)n1,3.9
25,CCNC(=O)OC1CCN(c2nncc3cc(OC)c(OC)cc23)CC1,5.4

row,Structure (SMILES),pKa
1,Clc1ccc2c(c1)[NH+]=C(N1CCCCC1)c1ccccc1N2,7.2
2,Cc1[nH]c2ccccc2c1CC[NH2+]Cc1ccc(CCC(=O)N=O)cc1,8.6
3,Cc1nc2ccccn2c1C(=O)NCc1ccc(Cl)cc1,5.1
4,Cc1cc(C)nc(N2CCC3(CCCN(Cc4nn(C)cc4-c4ccccc4)C3=O)CC2)n1,4.75
5,O=C1N(Cc2ccccc2)CCCC12CCN(c1cnc3ccccc3n1)CC2,3.6
6,COc1ccc2c(c1)CN(C(=O)CC[NH+]1CCC(Cc3ccccc3)CC1)CCS2,8.3
7,C=CC(=O)Nc1cccc(Nc2nc(Nc3ccc(OCCOC)cc3)ncc2F)c1,4.8
8,O=C(Nc1ccc(F)c(Cl)c1)C1CCN(c2ncccn2)CC1,3.8
9,O=C([O-])CSc1ncnc2cc(-c3ccc(Br)cc3)sc12,3.5
10,CC(=O)Nc1cccc(Nc2nc(Nc3ccccc3)n3ncc(C#N)c3n2)c1,9.7
11,Nc1cccc2c1C(=O)N(C1CCC(=O)NC1=O)C2=O (centres undefined),10.8
12,COc1ccc(NS(=O)(=O)c2ccc(-n3cccn3)cc2)cc1OC,8.3
13,O=C([O-])COc1ccc2c(c1)Cc1ccccc1-2,3
14,Fc1ccc2c(/C=C/c3cccnc3)c[nH]c2c1,5.3
15,O=c1[nH]c2ccc(-c3ccc(F)cc3)cc2cc1[O-],8.2
16,Nc1n[nH]c2cc(Br)ccc12,2.9
17,Cc1cc(C)c2cc(C(=O)NC3CC[NH+](C)CC3)[nH]c2c1,8.5
18,CCC1(c2ccccc2)C(=O)NC(=O)N(C)C1=O (centres undefined),7.6
19,COc1ccc2c(c1)C[NH+](C)CCS2,7.5
20,COC(=O)/C=C/C(=O)[O-],2.9
21,O=C(Nc1ccccc1C(=O)[O-])c1ccc(-c2ccccc2)cc1,3.2
22,Cc1ccc2c(c1)C(=O)C(=O)N2,9.8
23,CC(NC(=O)c1ccccc1/N=C/c1c(O)ccc2ccccc12)c1ccccc1 (centres undefined),6.9
24,O=C(Nc1nnc(-c2ccc(F)cc2)o1)c1ccc(Cl)s1,5.8
25,COc1ccc2nccc(-n3cc4c(n3)CCC(NC(=O)c3ccc5c(c3)NC(=O)CS5)C4)c2n1 (centres undefined),3.8

row,Structure (SMILES),pKa
1,Cc1nc(C(=O)[O-])ccc1N(C)Cc1cccc(Cl)c1,4.45
2,CC(=O)n1cc(C2=C([O-])CC(C)(C)CC2=O)c2ccccc21,5.2
3,COc1cccc(-c2nnc3n(Cc4ccccc4Cl)c(=O)c4ccccc4n23)c1O,8.4
4,Nc1ncnc2ccc(-c3cccc(F)c3)nc12,4.7
5,COc1ccc(Br)c(C=O)c1O,7.5
6,COc1ccc(-c2nc(Nc3ccc(F)cc3F)c3ccccc3n2)cc1OC,5.2
7,Cc1nc(C#Cc2ccnc(Cl)c2)c(C)n1-c1ccc(F)cc1,4.35
8,CNC(=O)c1ccc(Oc2ccc3c(c2)CC[NH+](C2CCC2)CC3)nc1,8.6
9,O=C(Nc1nnc(-c2cccs2)o1)c1cccc(C(F)(F)F)c1,5.7
10,Cc1cc(N)nc2ccccc12,7.9
11,O=C1N(Cc2c[nH]c3ccccc23)CCCC12CCN(c1ncccn1)CC2,3.8
12,Cc1cc(C)nc(N2CCC3(CCCC(=O)N3Cc3cccc4[nH]ccc34)CC2)n1,4.4
13,O=c1[nH]c2ccccc2c(=O)n1CCCl,10
14,Cc1cc(C)nc(N2CCC3(CCCN(Cc4nn(C)nc4-c4ccccc4)C3=O)CC2)n1,4.7
15,COc1ccc(C2=C([O-])c3ccccc3C2=O)cc1,4.1
16,COc1cc(Nc2ccccc2C(=O)[O-])cc(OC)c1,4
17,COc1cccc2[nH]cc(-c3ccnc(N)n3)c12,5.52
18,O=C(Nc1cccc(Cl)c1)c1ccc(Cl)cc1O,6.3
19,C1=C(c2cccc3ccccc23)N2CC[NH+]=C2c2ccccc21,10.3
20,Cc1ccc(NC(=O)c2cccc(C(C)(C)C#N)c2)cc1Nc1ccc2ncn(C)c(=O)c2c1,3.6
21,COc1ccc(N)c2ccccc12,4.9
22,CCOC(=O)N1CCC(C)(C[NH+]2CCC3(CC2)CN(S(C)(=O)=O)c2ncccc23)CC1,8.5
23,COc1cccc(-c2cccc(CCC3(C)CC(=O)N(C)C(N)=[NH+]3)c2)c1 (centres undefined),9.4
24,COc1ccc2[nH]cc(CN3CCCC4(CCN(c5nc(C)cc(C)n5)CC4)C3=O)c2c1,4.65
25,Cc1ccc(C)c(CN2C(=O)CCCC23CCN(c2cnc4ccccc4n2)CC3)c1,3.4

row,Structure (SMILES),pKa
1,O=C(CSc1nccn1C1CCCC1)Nc1ccc(C(F)(F)F)cc1,5.1
2,NC(=O)c1ccc(-c2cc(-c3ccccc3)cnc2N)cc1,5.4
3,O=C1CCN(Cc2ccccc2)C(=O)N1,11.7
4,COC(=O)Cn1c(C[NH+]2CCC(Cc3ccccc3)CC2)nc2c1c(=O)n(C)c(=O)n2C,6
5,Ic1cccc(-c2nn[n-]n2)c1,3.7
6,COc1cc2c(cc1OC)CN(c1cc(N)c3cc(OC)c(OC)cc3[nH+]1)CC2,8.9
7,N#Cc1cnc(NC(=O)Nc2ccc(Cl)c(Cl)c2)s1,7.5
8,Cc1csc2ncnc(NCCc3ccc(Cl)cc3)c12,3.9
9,O=C(Cc1ccccc1)N1CCCC12CCN(c1cnc3ccccc3n1)CC2,3.6
10,Cn1cc(C(=O)[O-])c(=O)c2ccccc21,6.5
11,CCc1ccc(-c2cn3c([nH+]2)SCC3)cc1,4.8
12,N#Cc1c(-c2ccccc2)nc(SCc2ccccc2)[nH]c1=O,4.5
13,CNC(=O)c1nc(-c2ccc(Cl)c(S(=O)(=O)Nc3cccc(F)c3C)c2)cnc1N,7.6
14,Cc1ccc(C)n1-c1ccc(SCC(=O)[O-])cc1,3.5
15,O=c1cc(CSc2cccc(F)c2F)nc2cc[nH]n12,7.35
16,CC(=O)Nc1ccc(Nc2ncnc3c2c(-c2ccccc2)cn3-c2ccccc2)cc1,3.9
17,CC(C(=O)[O-])c1ccc2c(c1)Cc1ccccc1-2 (centres undefined),4.3
18,NC(=O)c1cccc(-c2cc(Nc3ccc(OC(F)(F)F)cc3)ncn2)c1,4
19,O=c1[nH]c2cc(C(F)(F)F)ccc2n1Cc1cc(Cl)ccc1O,9.75
20,O=S(=O)(Nc1cc(F)ccc1F)c1ccc2[nH]c3c(c2c1)CCCC3,7.3
21,CS(=O)(=O)c1ccc(-c2cnc(N)c(-c3ccc(C(F)(F)F)nc3)c2)cc1,4.8
22,Cc1ccc(OC(C)(C)C(=O)N[C@@H](C)[C@@H](Cc2ccc(OCCF)cc2)c2cccc(C#N)c2)nc1,2.7
23,Nc1nc(-c2ccccc2)cc2ccccc12,6.9
24,CC(C(=O)[O-])c1ccc2c(c1)C(=O)c1ccccc1CS2 (centres undefined),4.1
25,Cc1cc(C)nc(N2CCC3(CCCN(Cc4cn(C)c5ccccc45)C3=O)CC2)n1,4.7

row,Structure (SMILES),pKa
1,CN1C(=O)Cn2cc(C(=O)NCc3ccc(Cl)cc3)c(=O)c3cc(C[NH+]4CCOCC4)cc1c32,6.2
2,CCc1cc(Br)ccc1S(=O)(=O)NCc1ccccc1,10.6
3,C1=C(c2ccccc2)N2CC[NH+]=C2c2ccccc21,10.3
4,COc1ccc(/C=C/C(=O)N2CCN(c3ccccn3)CC2)cc1,5.3
5,O=C(Nc1nccs1)C(CC1CCCC1)c1ccc(Cl)cc1 (centres undefined),10.5
6,CC(C)Oc1ccc(Cc2ccc(NC3=[NH+]CCN3)cc2)cc1,10.5
7,CCc1ccc(/C=C2/SC(=S)[N-]C2=O)cc1,5.8
8,C[C@H](C#Cc1ccc(Cc2ccc(F)cc2)s1)N(O)C(N)=O,10.4
9,Nc1nccc(N2CCc3ccc(Br)cc32)n1,6.9
10,O=S(=O)(c1ccccc1)n1cc(-c2cccc3nccn23)c2ccccc21,6.4
11,c1ccc(Nc2ncc3ccccc3n2)cc1,3.6
12,O=C(NC(=O)c1ccccc1)c1ccccc1,9.9
13,O=C([O-])c1ccc(NCc2cccc(Oc3ccccc3)c2)cn1,4.45
14,N#Cc1cccc(Nc2ccccc2C(=O)[O-])c1,3.9
15,c1ccc(-c2cnc3c(-c4ccnc5ccccc45)cnn3c2)cc1,4.9
16,O=C(Nc1ccc(Cl)cc1)NS(=O)(=O)c1ccc(Cl)cc1,3.4
17,COc1ccc(N2CCOCC2)c2sc(NC(=O)N3CCC(C)(O)CC3)nc12,9.4
18,COCc1nc2ccccc2n1Cc1ccc(C(C)(C)C)cc1,4.2
19,Fc1cccc(-c2c[nH]c3ncccc23)c1,4.1
20,c1ccc(N2CC[NH2+]CC2)cc1,9
21,O=C([O-])c1ccc(-c2nn(C(=O)c3c(Cl)cccc3Cl)c3ccccc23)cc1,3.2
22,O=C(Nc1cccc(Cl)c1)c1ccccc1O,7.2
23,COc1cccc(-c2cnc(N)c(-c3ccc(C(N)=O)cc3)c2)c1,5.3
24,O=C1CN(c2ccccc2)C(=O)N1,8.3
